Earlier results as cited in article PMC10882020 (Heliyon, 2024).

Legend:
[1] = tested on: ACE; conditions: read-out: ACE inhibitory activity IC50; ref 11 (Zheng et al.)
[2] = orally administered at a dose of 100–150 mg/kg; ref 11 (Zheng et al.)

- IC50 [1]: 38.2 µM
Sequence: RGQVIYVL
- antihypertensive effects [2]: significant antihypertensive effects
